Where “and” joins values, the source holds several entries; their conditions need not be identical. Identical values can stand only once. Entries after “also recorded” stand apart in the source; their conditions may differ.
Legend:
[1] = system: peripheral T-Cell Lymphoma (PTCL); assay: Phase 2a clinical trial with AP1 in peripheral T-cell lymphoma; format: in vivo, human
Procedure: Based on the results of the dose-escalation study and the complete response observed in a patient with PTCL, a Phase 2a clinical trial was conducted in patients with PTCL.

[2] = system: MCF-7 cells; assay: MCF-7 cell proliferation (WST-1 / CyQUANT), AP1 and CDK4/CDK6 inhibitors; format: cell-based, human; details: sequential treatment, 24 h pre-treatment
Procedure: The WST-1 variant of the MTT assay was used to measure cell viability. WST-1 is a cell-impermeable, sulfonated tetrazolium salt that can be used to examine cell viability without killing the cells. […] All media were supplemented with 10% (v/v) fetal calf serum, 100 units of penicillin, and 100 μg/mL of streptomycin at 37° C. and 5% CO2. Prior to dosing, MCF-7 cells were switched to serum-free medium and grown at 37° C. overnight. One day prior to assaying, the cells were trypsinized, counted, and seeded at pre-determined densities in 96-well plates as follows: MCF-7, 5000 cells/well/200 μL; MOLT-3, 30,000 cells/well/200 μL.
The concentration of ribociclib was kept constant.
The concentration of abemaciclib was kept constant.
Various MCF-7 cell numbers were plated and evaluated 3-7 days after plating to determine the optimal number of cells to be plated and to determine the treatment duration. […] MCF-7 cells were evaluated for viability using the WST-1 assay or the CyQUANT method 3-7 days or 120 h after beginning treatment.
The cells were evaluated for viability using the CyQUANT method after beginning the simultaneous treatments.
The cells were evaluated for viability using a WST-1 assay or MTT assay 3-7 days after beginning the treatments.
The data are expressed as log(CI).

[3] = Phase 1 dose-escalation trial of AP1: safety and tolerability; format: in vivo, human
Source text: 71 patients were enrolled in the dose-escalation trial. The trial used a “3+3” dose-escalation design.
Starting with dose level 4, patients who had cancers associated with HPV were excluded from enrollment because HPV is known to destroy WT p53.
FIG. 2 illustrates the dosing regiments (DRs) used in the “3+3” dose escalation trial.
Eight patients experienced dose reductions, including two patients who had been on study treatment for over 1 year, and another patient who had been on study treatment for 11 months. […] Both events were Grade 3 hypotension and were at the 3.1 mg/kg and the 4.4 mg/kg once-weekly dosing levels. […] Five patients discontinued treatment with AP1 due to these events.

[4] = system: MIC-1; assay: Phase 1 dose-escalation trial of AP1: plasma MIC-1 biomarker; format: in vivo, human; details: plasma MIC-1 after end of AP1 infusion
Procedure: Depending on the sample type, the PD biomarkers included measures of MDMX, MDM2, p21, p53, apoptosis, macrophage inhibitory cytokine 1, or MIC-1.
In the Phase 1 dose-escalation study, plasma MIC-1 levels were measured at several time points after initial infusion.

[5] = system: SJSA-1 osteosarcoma xenograft; assay: SJSA-1 osteosarcoma xenograft model, AP1 and palbociclib; format: in vivo, mice; details: AP1 20 mg/kg qwkx4, palbociclib 75 mg/kg qdx22
Procedure: (§1) The group was not euthanized, and the mice were allowed to recover. […] Animals were monitored individually. […] Responders were followed for a longer period of time. When the endpoint was reached, the animals were euthanized. […] An aqueous phosphate-buffered saline solution or sodium lactate (50 mM, pH 4.0) solution was used as the vehicle.

[6] = system: A549 xenograft; assay: A549 xenograft model, AP1 and palbociclib; format: in vivo, mice
Source text: The arrows indicate spontaneous tumor shrinkage in vehicle controls. The arrows with * indicate poor growth of tumors late in the study.

[7] = system: advanced solid tumors or lymphomas expressing WT p53; assay: Phase 1 dose-escalation trial of AP1: anti-tumor activity (RECIST / IWG); format: in vivo, human
Procedure: Anti-tumor activity was measured using Response Evaluation Criteria in Solid Tumors (RECIST) criteria for patients with solid tumors, and 2015 International Working Group (IWG) criteria for patients with lymphomas. The RECIST and IWG criteria enabled the objective evaluation of whether a tumor had progressed, stabilized, or decreased in size. Anti-tumor effects were also determined through physical examinations or clinically validated blood or serum tumor markers.
Anti-tumor activity was measured using RECIST criteria for patients with solid tumors and the IWG criteria for patients with lymphomas to objectively evaluate whether a tumor progressed, stabilized, or shrunk.
The percent change in tumor volume for each evaluable patient (i.e., having measurable disease by CT or PET-CT scan) is plotted from the highest to lowest value, or low to high response, and each bar of the histogram is colored by the best overall response measured for that patient per RECIST or IWG criteria.

[8] = system: human CD45 leukemic cells; assay: Survival in an in vivo xenotransplantation model; parameters: species or system mice; details: for Long term survival, mice still alive: 130 days post start of treatment
Source text: The median survival for group 1 and group 2 was 34 days and 83 days, respectively (p<0.0001).

[9] = system: Acute Myeloid Leukemia (AML) or Myelodysplastic Syndrome (MDS), expressing WT p53; assay: Clinical study of AP1 alone or with cytarabine in AML or MDS; format: in vivo, human; details: evaluable patients with bone marrow biopsies before and after dosing
[10] = system: MCF-7.1 human breast carcinoma xenograft; assay: MCF-7.1 human breast carcinoma xenograft model, AP1 and palbociclib; format: in vivo, mice; details: AP1 20 mg/kg qwkx4, palbociclib 75 mg/kg qdx22
Procedure: as §1, with “Female athymic nude mice were provided with drinking water with 10 μg/mL with 17 beta estradiol supplementation 3 days prior to cell implantation and for the duration of the study. […] The mice were between 8-12 weeks of age at the beginning of the study. […] The” for “The”

[11] = Phase 1 dose-escalation trial of AP1: pharmacokinetic profile; format: in vivo, human; details: patients, I.V. infusion
Source text: Data were collected at different time points after the start of infusion (SOI) and the end of infusion (EOI).

[12] = d22, calculated using vehicle median volumes on d0 and d22
[13] = three consecutive measurements > 150% of d1 volume

CC(=O)N[C@@H](CC(C)C)C(=O)N[C@H](C(=O)N[C@@H](Cc1ccccc1)C(=O)N[C@]1(C)CCCCCCC=CCCC[C@@](C)(C(=O)N[C@@H](C)C(=O)N[C@@H](C)C(=O)N[C@@H](C)C(=O)N[C@@H](C)C(=O)N[C@@H](C)C(=O)N[C@H](C)C(N)=O)NC(=O)[C@H](CC(C)C)NC(=O)[C@H](CCC(N)=O)NC(=O)[C@H](C)NC(=O)[C@H](Cc2c[nH]c3ccccc23)NC(=O)[C@H](Cc2ccc(O)cc2)NC(=O)[C@H](CCC(=O)O)NC1=O)[C@@H](C)O [AP1]
response of the first patient enrolled in the Phase 2 study in PTCL ([1]; after 2 cycles of treatment): partial response | Best overall response ([1]; seven PTCL patients on AP1 therapy, one line per patient (patient 1 from dose escalation)): ODP | Days on treatment ([1]; seven PTCL patients on AP1 therapy, one line per patient (patient 1 from dose escalation), Dose escalation study): 487 days | Days on treatment ([1]; seven PTCL patients on AP1 therapy, one line per patient (patient 1 from dose escalation), Phase 2a study): 32 days and 1 days and 122 days and 134 days and 66 days and 53 days | MCF-7 cell growth [2]: suppressed MCF-7 cell growth with or without treatment with palbociclib | dose limiting toxicity (DLT) ([3]; 3.1 mg/kg once weekly dosing): One dose limiting toxicity (DLT) of Grade 3 fatigue | dose limiting toxicity (DLT) ([3]; […] once weekly): four DLTs (Grade 3 elevated alkaline phosphatase, Grade 3 hypotension, Grade 3 anemia, Grade 4 neutropenia) | patients with transient decreases in lymphocytes post-dosing and primarily Grade 1 and 2 abnormalities ([3]; full recovery within a few days): approximately 50% | MTD ([3]; human, in vivo, iv, dosed once a week by I.V. administration, patients): 3.1 mg/kg | tolerability as considered by the investigators ([3]; patients, dose escalation trial): generally well tolerated | most frequently reported drug-related events ([3]; reported by ≥10% of the patients): nausea, fatigue, vomiting, decreased appetite, anemia, headache, and constipation | doses achieving a maximal 24 hr MIC-1 increase above baseline [4]: ≥ 2.1 mg/kg | Median tumor volume (mm^3) D1 ([5]; D1 (start of dosing), SJSA-1 xenograft, nude mice): 117 mm^3 | Median tumor volume (mm^3) D22 ([5]; D22, SJSA-1 xenograft, nude mice): 2150 mm^3 | Median time to tumor volume > 1000 mm^3 ([5]; SJSA-1 xenograft): 16 days | Median time to tumor volume > 2000 mm^3 ([5]; SJSA-1 xenograft): 21 days | % TGI (±SEM) on d22 (end of dosing) [5, 12]: 17 (6) % | Animals with disease progression [5, 13]: 10/10 | Median time to tumor volume > 500 mm^3 ([6]; A549 xenograft, AP1 20 mg/kg qwkx4): 25 days | Median tumor volume (mm^3) D1 ([6]; D1 (start of dosing), A549 xenograft, nude mice, AP1 20 mg/kg qwkx4, palbociclib 75 mg/kg qdx22): 126 mm^3 | Median tumor volume (mm^3) D22 ([6]; D22, A549 xenograft, nude mice, AP1 20 mg/kg qwkx4, palbociclib 75 mg/kg qdx22): 405 mm^3 | % TGI (±SEM) on d22 (end of dosing) ([6]; d22, calculated using vehicle median volumes on d0 and d22, AP1 20 mg/kg qwkx4, palbociclib 75 mg/kg qdx22): 42 (7) % | Animals with disease progression ([6]; three consecutive measurements > 150% of d1 volume, AP1 20 mg/kg qwkx4, palbociclib 75 mg/kg qdx22): 10/10 | animals have reached endpoint ([6]; tumor volume > 500 mm^3, A549 xenograft, AP1 20 mg/kg qwkx4, palbociclib 75 mg/kg qdx22): 8/10 animals | responses with stabilization of tumor size (SDs) ([7]; 57 evaluable patients): 21 | stable diseased patients that exhibited tumor shrinkage ([7]; 57 evaluable patients): 7 | patient scans of the two CR patients ([7]; PTCL patient after six cycles, MCC patient after further treatment): the lymph node returned to its normal size; also recorded: showed no trace of cancer in the patient | max time a patient received AP1 ([7]; one patient): 613 days | Long term survival, mice still alive ([8]; group 2): 22% | Long term survival, mice still alive ([8]; group 3): 60% | median survival ([8]; group 2 (group 1: 34 days), p<0.0001): 83 days | overall survival ([8]; vs vehicle): doubled the overall survival | patients who demonstrated stabilization of their disease [9]: 3 | Median tumor volume (mm^3) D1 ([10]; D1 (start of dosing), MCF-7.1 xenograft, nude mice): 126 mm^3 | Median tumor volume (mm^3) D22 ([10]; D22, MCF-7.1 xenograft, nude mice): 473 mm^3 | Median time to tumor volume > 500 mm^3 ([10]; MCF-7.1 xenograft): 22 days | Median time to tumor volume > 1000 mm^3 ([10]; MCF-7.1 xenograft): 35 days | % TGI (±SEM) on d22 (end of dosing) [10, 12]: 30 (9) % | animals have reached endpoint ([10]; endpoint tumor volume > 1000 mm^3, MCF-7.1 xenograft): 10/10 animals | Animals with disease progression [10, 13]: 10/10 | maximum drug serum concentrations observed (Cmax) ([11]; all dose levels): dose-related increase | half-lives ([11]; higher dose levels): five and seven

Source: US20180371021A1, “PEPTIDOMIMETIC MACROCYCLES AND USES THEREOF” (Aileron Therapeutics, Inc., priority 2017, published 2018)
